# Source: patent publication US9212168B2 (priority 2011, dated 2015)
# Tested on: HCV genotype 1a replicon
# Assay: HCV genotype 1a replicon assay (NS3 protease activity readout)
# Type: cell-based, hepatitis C virus
# Conditions: HCV genotype 1a replicon
# Protocol: Assay 2: HCV Genotype 1a Replicon Assay
# The HCV genotype 1a replicon cell line was obtained from Apath LLC (APC89; Huh7.5 cell background). This subgenomic replicon contains the N-terminus of the HCV core protein fused to the neomycin-resistance selectable marker. The EMCV IRES lies downstream and drives expression of the non-structural proteins NS3-NS5B. Compound potencies were determined using the NS3-specific protease activity in lysates as a measurement of compound inhibition of replicon levels.
# Cells were grown at 37° C. in a 5% CO2 humidified incubator in DMEM (Invitrogen) with 10% FBS (HyClone), 1×NEAA (Invitrogen), 1× Pen-Strep (Invitrogen), and 850 μg/mL G418 (Invitrogen). On day 1 of the assay, cells were plated at 15,000 cells/well in black 96-well tissue culture plates (Costar) in 200 μL media lacking G418. Four hours later, once the cells had adhered, the media was removed and replaced with media (no G418) containing dose-responses of test compounds. Compounds were initially diluted in DMSO and then diluted another 200× in media to bring the final DMSO concentration down to 0.5%. The cells were incubated with test compounds for 48 or 72 hours. At the end of the incubation period, media and compound were removed from the plates.
# To determine the NS3-specific protease activity in lysates, the cells were lysed at room temperature in 50 μL/well of 50 mM Hepes pH 7.5, 150 mM NaCl, 15% Glycerol, 0.15% Triton X-100, 10 mM DTT for 20 minutes with shaking. 50 μL of an NS3/4a protease-specific FRET substrate (Anaspec RET S1 Cat#22991) was then added to the wells at a final concentration of 15 μM. The plates were incubated at 37° C. for 20 minutes, which corresponds to a timepoint at which the protease activity is still in the linear phase. Protease activity was determined by measuring fluorescence (Excitation: 340 nm; Emission: 509 nm).
# To analyze the data, the fluorescence was plotted vs. the compound concentration, and EC50 values were determined from a 4-parameter robust fit model using GraphPad Prism software.
row,Compound,Genotype 1a
1,COC(=O)N[C@H](C(=O)N1C[C@@H](C)C[C@H]1c1nc(-c2ccc(-c3cc(Cl)c(NC(=O)c4ccc(N5C[C@H](C)N(C(=O)[C@H]6CCCN6C(=O)OC)C[C@H]5C)nc4)cc3OC(F)(F)F)cc2)c[nH]1)C(C)C [Example 1-46],D (D represents pEC50>10 (EC50<0.1 nM))
2,COC(=O)N[C@H](C(=O)N1C[C@@H](C)C[C@H]1c1nc(-c2ccc(-c3cc(Cl)c(NC(=O)c4ccc(N5CCN(C(=O)[C@H]6CCCN6C(C)=O)C[C@H]5C)nc4)cc3OC(F)(F)F)cc2)c[nH]1)C(C)C [Example 1-47],D (D represents pEC50>10 (EC50<0.1 nM))
3,CCC(=O)N1CCC[C@@H]1C(=O)N1CCN(c2ccc(C(=O)Nc3cc(OC(F)(F)F)c(-c4ccc(-c5c[nH]c([C@@H]6C[C@H](C)CN6C(=O)[C@@H](NC(=O)OC)C(C)C)n5)cc4)cc3Cl)cn2)[C@H](C)C1 [Example 1-48],D (D represents pEC50>10 (EC50<0.1 nM))
4,COC(=O)N[C@H](C(=O)N1C[C@@H](C)C[C@H]1c1nc(-c2ccc(-c3cc(Cl)c(NC(=O)c4ccc(N5CCN(C(=O)[C@H]6CCCN6C(=O)C(C)C)C[C@H]5C)nc4)cc3OC(F)(F)F)cc2)c[nH]1)C(C)C [Example 1-49],D (D represents pEC50>10 (EC50<0.1 nM))
5,COC(=O)N[C@H](C(=O)N1C[C@@H](C)C[C@H]1c1nc(-c2ccc(-c3cc(Cl)c(NC(=O)c4ccc(N5CCN(C(=O)[C@H]6CCCN6C(=O)C(C)(C)C)C[C@H]5C)nc4)cc3OC(F)(F)F)cc2)c[nH]1)C(C)C [Example 1-50],D (D represents pEC50>10 (EC50<0.1 nM))
6,COC(=O)N[C@H](C(=O)N1C[C@@H](C)C[C@H]1c1nc(-c2ccc(-c3cc(Cl)c(NC(=O)c4ccc(N5CCN(C(=O)[C@H]6CCCN6C(=O)C6CC6)C[C@H]5C)nc4)cc3OC(F)(F)F)cc2)c[nH]1)C(C)C [Example 1-51],D (D represents pEC50>10 (EC50<0.1 nM))
7,COC(=O)N[C@H](C(=O)N1C[C@@H](C)C[C@H]1c1nc(-c2ccc(-c3cc(F)c(NC(=O)c4ccc(N5CCN(C(=O)C6CC6)C[C@H]5C)nc4)cc3C(F)(F)F)cc2)c[nH]1)C(C)C [Example 1-52],"C (C represents pEC50 between and 9 and about 10, (EC50 between 1 nM and 0.1 nM))"
8,COC(=O)N[C@H](C(=O)N1C[C@@H](C)C[C@H]1c1nc(-c2ccc(-c3cc(Cl)c(NC(=O)c4ccc(N5CCN(C(=O)C6CC6)C[C@H]5C)nc4)cc3C(F)(F)F)cc2)c[nH]1)C(C)C [Example 1-54],D (D represents pEC50>10 (EC50<0.1 nM))
9,COC(=O)N[C@H](C(=O)N1C[C@@H](C)C[C@H]1c1nc(-c2ccc(-c3cc(F)c(NC(=O)c4ccc(N5CCN(C(=O)C(C)(C)C)C[C@H]5C)nc4)cc3C(F)(F)F)cc2)c[nH]1)C(C)C [Example 1-58],D (D represents pEC50>10 (EC50<0.1 nM))
10,COC(=O)N[C@H](C(=O)N1C[C@@H](C)C[C@H]1c1nc(-c2ccc(-c3ccc(NC(=O)c4ccc(N5CCN(C(=O)C(C)(C)C)C[C@H]5C)nc4)cc3C(F)(F)F)cc2)c[nH]1)C(C)C [Example 1-63],D (D represents pEC50>10 (EC50<0.1 nM))
11,COC(=O)N[C@H](C(=O)N1C[C@@H](C)C[C@H]1c1nc(-c2ccc(-c3ccc(NC(=O)c4ccc(N5CCN(C(=O)N(C)C)C[C@H]5C)nc4)cc3C(F)(F)F)cc2)c[nH]1)C(C)C [Example 1-64],"C (C represents pEC50 between and 9 and about 10, (EC50 between 1 nM and 0.1 nM))"
12,COC(=O)N[C@H](C(=O)N1C[C@@H](C)C[C@H]1c1nc(-c2ccc(-c3ccc(NC(=O)c4ccc(N5CCN(C(=O)C6CC6)C[C@H]5C)nc4)cc3C(F)(F)F)cc2)c[nH]1)C(C)C [Example 1-65],"C (C represents pEC50 between and 9 and about 10, (EC50 between 1 nM and 0.1 nM))"
13,COC(=O)N[C@H](C(=O)N1C[C@@H](C)C[C@H]1c1nc(-c2ccc(-c3cc(Cl)c(NC(=O)c4ccc(N5CCN(C(C)=O)C[C@H]5C)nc4)cc3OC(F)(F)F)cc2)c[nH]1)C(C)C [Example 1-66],"C (C represents pEC50 between and 9 and about 10, (EC50 between 1 nM and 0.1 nM))"
14,CCCC(=O)N1CCN(c2ccc(C(=O)Nc3cc(OC(F)(F)F)c(-c4ccc(-c5c[nH]c([C@@H]6C[C@H](C)CN6C(=O)[C@@H](NC(=O)OC)C(C)C)n5)cc4)cc3Cl)cn2)[C@H](C)C1 [Example 1-68],"C (C represents pEC50 between and 9 and about 10, (EC50 between 1 nM and 0.1 nM))"
15,CC[C@H](C)C(=O)N1CCN(c2ccc(C(=O)Nc3cc(OC(F)(F)F)c(-c4ccc(-c5c[nH]c([C@@H]6C[C@H](C)CN6C(=O)[C@@H](NC(=O)OC)C(C)C)n5)cc4)cc3Cl)cn2)[C@H](C)C1 [Example 1-69],D (D represents pEC50>10 (EC50<0.1 nM))
16,CCCCC(=O)N1CCN(c2ccc(C(=O)Nc3cc(OC(F)(F)F)c(-c4ccc(-c5c[nH]c([C@@H]6C[C@H](C)CN6C(=O)[C@@H](NC(=O)OC)C(C)C)n5)cc4)cc3Cl)cn2)[C@H](C)C1 [Example 1-71],"C (C represents pEC50 between and 9 and about 10, (EC50 between 1 nM and 0.1 nM))"
17,COC(=O)N[C@H](C(=O)N1C[C@@H](C)C[C@H]1c1nc(-c2ccc(-c3cc(Cl)c(NC(=O)c4ccc(N5CCN(C(=O)NC(C)C)C[C@H]5C)nc4)cc3OC(F)(F)F)cc2)c[nH]1)C(C)C [Example 1-72],D (D represents pEC50>10 (EC50<0.1 nM))
18,CCC(=O)N1CCN(c2ccc(C(=O)Nc3cc(OC(F)(F)F)c(-c4ccc(-c5c[nH]c([C@@H]6C[C@H](C)CN6C(=O)[C@@H](NC(=O)OC)C(C)C)n5)cc4)cc3Cl)cn2)[C@H](C)C1 [Example 1-73],D (D represents pEC50>10 (EC50<0.1 nM))
19,COC(=O)N[C@H](C(=O)N1C[C@@H](C)C[C@H]1c1nc(-c2ccc(-c3ccc(NC(=O)c4ccc(N5CCN(C(=O)[C@H]6CC6(C)C)C[C@H]5C)nc4)cc3OC(F)(F)F)cc2)c[nH]1)C(C)C [Example 1-74],D (D represents pEC50>10 (EC50<0.1 nM))
20,COC(=O)N[C@H](C(=O)N1C[C@@H](C)C[C@H]1c1nc(-c2ccc(-c3cc(F)c(NC(=O)c4ccc(N5CCN(C(=O)[C@H]6CC6(C)C)C[C@H]5C)nc4)cc3Cl)cc2)c[nH]1)C(C)C [Example 1-76],D (D represents pEC50>10 (EC50<0.1 nM))
21,COC(=O)N[C@H](C(=O)N1C[C@@H](C)C[C@H]1c1nc(-c2ccc(-c3cc(F)c(NC(=O)c4ccc(N5CCN(C(=O)C6(C)CC6)C[C@H]5C)nc4)cc3OC(F)(F)F)cc2)c[nH]1)C(C)C [Example 1-79],"C (C represents pEC50 between and 9 and about 10, (EC50 between 1 nM and 0.1 nM))"
22,COC(=O)N[C@H](C(=O)N1C[C@@H](C)C[C@H]1c1nc(-c2ccc(-c3cc(Cl)c(NC(=O)c4ccc(N5CCN(C(=O)C6(C)CC6)C[C@H]5C)nc4)cc3OC(F)(F)F)cc2)c[nH]1)C(C)C [Example 1-80],"C (C represents pEC50 between and 9 and about 10, (EC50 between 1 nM and 0.1 nM))"
23,COC(=O)N[C@H](C(=O)N1C[C@@H](C)C[C@H]1c1nc(-c2ccc(-c3cc(F)c(NC(=O)c4ccc(N5CCN(C(=O)C6CC6)C[C@H]5C)nc4)cc3F)cc2)c[nH]1)C(C)C [Example 1-83],"C (C represents pEC50 between and 9 and about 10, (EC50 between 1 nM and 0.1 nM))"
24,COC(=O)N[C@H](C(=O)N1C[C@@H](C)C[C@H]1c1nc(-c2ccc(-c3cc(F)c(NC(=O)c4ccc(N5CCN(C(=O)C6CC67CC7)C[C@H]5C)nc4)cc3Cl)cc2)c[nH]1)C(C)C (stereo partly drawn) [Example 1-84],"C (C represents pEC50 between and 9 and about 10, (EC50 between 1 nM and 0.1 nM))"
